Data as given in patent publication US20230399358A1, “IMMUNOGLOBULIN PURIFICATION PEPTIDES AND THEIR USE” (North Carolina State University, priority 2019, published 2023).
Entries after “also recorded” stand apart in the source; their conditions may differ. Like-named read-outs stand apart in the source and are kept apart here. No end group written: not given here.

Legend:
[1] = test system: human IgG; format: binding
Procedure: (§1) Measurement of IgG binding by peptide-based chromatographic adsorbents: For initial studies, 35 mg of MWRGWQ (SEQ ID NO:2)-Toyopearl, RHLGWF (SEQ ID NO:3)-Toyopearl, WQRHGI (SEQ ID NO:1)-Toyopearl, GWLHQR (SEQ ID NO:4)-Toyopearl, and HWRGWV (SEQ ID NO:18)-Toyopearl (control) resins were equilibrated in PBS pH 7.4, reaching a swollen volume of 0.1 mL, and subsequently incubated with 1 mg/mL IgG in 0.205 mg/mL CHO cell culture supernatant for 30 minutes. The resins were subsequently washed several times with PBS to remove non-specifically bound proteins. Elution was performed with 100 mM glycine buffer pH 2.5. Flowthrough and elution fractions were collected and analyzed by SDS PAGE under reducing conditions. The resulting gels were stained with Coomassie staining. Further, 25 mg of the adsorbents MWRGWQ (SEQ ID NO:2)-Toyopearl, NIFRGWQ (SEQ ID NO:21)-Toyopearl, MWRAWQ (SEQ ID NO:5)-Toyopearl, MWRGFQ (SEQ ID NO:7)-Toyopearl, MWRGWN (SEQ ID NO:22)-Toyopearl, (NorL) WRGWQ (SEQ ID NO:23)-Toyopearl, MGRGWQ (SEQ ID NO:24)-Toyopearl, MWRWQ (SEQ ID NO:6)-Toyopearl, MWRGGQ (SEQ ID NO:26)-Toyopearl, GWRGWQ (SEQ ID NO:8)-Toyopearl, WQRHGI (SEQ ID NO:1)-Toyopearl, WNRHGI (SEQ ID NO:12)-Toyopearl, WQRAGI (SEQ ID NO:28)-Toyopearl, WQRHAI (SEQ ID NO:11)-Toyopearl, WQRHGL (SEQ ID NO:9)-Toyopearl, FQRHGI (SEQ ID NO:29)-Toyopearl, and WQRHGV (SEQ ID NO:10)-Toyopearl resins were equilibrated in PBS pH 7.4, reaching a swollen volume of 0.1 mL, and subsequently incubated with 1 mg/mL IgG in PBS at pH 7.4 for 30 minutes. The amount of unbound IgG in the supernatant samples was quantified by Bradford assay and utilized to determine the IgG binding % by the peptide variants.
A limited library of residue-by-residue changes confirmed the importance of each residue in peptides WQRHGI (SEQ ID NO:1) and MWRGWQ (SEQ ID NO:2) in reducing the binding energy between the peptide and the IgG target. […] This was accomplished by designing and constructing an ensemble of 20 variants of peptides WQRHGI (SEQ ID NO:1) and MWRGWQ (SEQ ID NO:2). Selected residues in positions 1-6 were mutated. The peptide variants were synthesized directly on Toyopearl AF-amino-650M resin via Fmoc/tBu chemistry. The resulting adsorbents were incubated with a solution of human IgG at 2 mg/mL at a ratio of 1 mL of resin per 3.5 mL of solution for 30 min at room temperature. The residual concentration of IgG in solution was determined by Bradford concentration assay of the supernatants and utilized to calculate the amounts of bound IgG per volume of resin; Table 7 reports the % binding, defined as mg IgG bound by variant/mg IgG bound by original sequence (either WQRHGI (SEQ ID NO:1) or MWRGWQ (SEQ ID NO:2))×100%, of each sequence variant.

[2] = Solubility of free peptide in buffer (preparation for ITC); format: physicochemical
Procedure: MWRGWQ (SEQ ID NO:2) was unable to be examined via ITC. Peptide MWRGWQ (SEQ ID NO:2) was not soluble in pH 7.4 buffer, likely due to self-associative properties. MWRGWQ (SEQ ID NO:2) was found soluble in highly acidic buffer, but ITC results were confounded by the heat of mixing between acidic and neutral solutions. […] Attempts were made to raise the pH of buffer in which MWRGWQ (SEQ ID NO:2) was dissolved, but the peptide was seen to gel when the pH was raised above 5.
MWRGWQ's (SEQ ID NO:2) binding affinity could not be examined using ITC. […] However, when the peptide was dissolved in a lower pH solution, the heat of mixing between the different pH solutions was extremely high, and peptide-peptide or peptide-IgG binding energies upon titration became difficult to differentiation from the heat of mixing in ITC experiments.

[3] = test system: human polyclonal IgG in CHO-S cell culture fluid; test: Static purification of IgG from CHO cell culture supernatant on peptide-Toyopearl resins, SDS-PAGE densitometry; settings: for % Purity (IgG over total proteins): lane FT (flow-through); for % Purity (IgG over total eluted proteins): lane R (pH 2.5)
Procedure: as §1
Characterization of IgG-binding peptide variants WQRHGI (SEQ ID NO:1), MWRGWQ (SEQ ID NO:2), RHLGWF (SEQ ID NO:3), and GWLHQR (SEQ ID NO:4) in competitive conditions: The four selected sequence variants were tested for their ability to purify human IgG from a CHO cell culture supernatant and found largely to mirror their in silico predictions. Even though they seemed to underperform in silico, RHLGWF (SEQ ID NO:3) and GWLHQR (SEQ ID NO:4) were tested alongside WQRHGI (SEQ ID NO:1) and MWRGWQ (SEQ ID NO:2) in these conditions in order to confirm their ability to bind IgG and examine their selectivity as predicted in silico. The feedstock was prepared by spiking human polyclonal IgG into a clarified null CHO-S cell culture fluid to obtain an IgG concentration of 1 mg/mL and a CHO HCP concentration of 0.205 mg/mL. An aliquot of 500 μL was loaded onto each peptide adsorbent in static conditions for 30 min. Following a washing step with PBS to remove loosely bound proteins, a first elution step was conducted using 0.1 M glycine buffer pH 2.5 to remove all bound proteins. Flow through fractions and pH 2.5 elution fractions were loaded neat and analyzed by SDS PAGE (FIGS. 6A-6B). The values of IgG purity in the eluted fractions were determined by densitometric analysis of the corresponding lanes on the gels, and are reported in Table 9.

[4] = test system: IgG; settings: optimized adsorbents, Menegatti et al. 2016; cited from earlier work
[5] = test system: host cell protein (HCP); settings: literature value; cited from earlier work
[6] = test system: human IgG; settings: reference [77], cited from earlier work
[7] = test system: human polyclonal IgG in CHO cell culture fluid; test: Chromatographic purification of IgG from CHO cell culture fluid on WorkBeads resin, SDS-PAGE densitometry; settings: FIG. 8, reduced ligand density 35.2 milliequivalents/mL
Procedure: Purification of IgG from CHO Cell culture fluids using MWRGWQC (SEQ ID NO:31)- and WQRHGIC (SEQ ID NO:30)—Workbeads: A volume of 0.1 mL of resin was packed in a PEEK microbore column, installed on a Waters 2695 unit, and equilibrated with PBS, pH 7.4. All chromatographic buffers were filtered through a compatible 0.2 μm filter prior to use. A volume of 100 μL of solution of human polyclonal IgG at 1 mg/mL in a CHO cell culture fluid at 0.205 mg/mL CHO HCPs was injected in the column at 0.02 mL/min (RT: 5 minutes). Following injection, the resin was washed with PBS at 0.2 mL/min and, subsequently, with 100 mM NaCl in PBS at 0.2 mL/min. Elution was then conducted with […] pH 4. An acidic cleaning step was conducted in 0.1 M glycine pH 2.5 to remove any proteins still bound. The absorbance of the effluent was monitored by UV/Vis spectrophotometry at 280 nm. Fractions were collected and adjusted to neutral pH. Total protein concentration was measured by BCA assay. All collected fractions were also analyzed via SDS PAGE under reducing conditions. The gel was stained by silver staining, and the overall IgG purity in the eluted fractions was determined by densitometric analysis using ImageJ software. Finally, the feed and eluted fractions were analyzed using a CHO-specific ELISA kit to determine the log removal value (LRV) of HCPs.
The high purity of the recovered IgG using WQRHGI (SEQ ID NO:1), as calculated by densitometric analysis (100%) was confirmed by the HCP LRV value of 2.7, thus indicating WQRHGI (SEQ ID NO:1) has purification abilities similar to Protein A. This is a remarkable result. […] The collected chromatographic fractions were analyzed by SDS-PAGE (FIG. 7B, silver stained to highlight diluted CHO HCPs). The % values of IgG in the fractions (expressed as a ratio of IgG concentration over total protein (e.g., IgG+CHO HCPs)) were calculated by densitometric analysis of the lanes in the SDS gel and were as follows: Control (C), 0.00%; Load (L) 59.77%; Flowthrough (FT), 0.00%; Elution 1 (El1), 100.00%; Elution 2 (El2), 0.00%; IgG 93.30%. […]

[8] = test system: human polyclonal IgG in CHO-S cell culture fluid; test: Static purification of IgG from CHO cell culture supernatant on peptide-Toyopearl resins, SDS-PAGE densitometry; settings: Gel B, lane E (pH 4)
[9] = target: human polyclonal IgG (human); test: breakthrough curve, 20 mg/mL IgG in PBS on a peptide-WorkBeads column, residence time 2 min
[10] = target: human polyclonal IgG (human); test: batch adsorption isotherm of IgG on peptide-WorkBeads resin, BCA of unbound IgG, Langmuir fit (KD(Solid))
[11] = target: human polyclonal IgG (human); test: batch adsorption isotherm of IgG on peptide-WorkBeads resin, BCA of unbound IgG, Langmuir fit
[12] = target: human polyclonal IgG (human); test: breakthrough curve, 20 mg/mL IgG in PBS on a peptide-WorkBeads column, residence time 5 min
[13] = target: human polyclonal IgG (human); test: batch incubation of peptide-Toyopearl resin with human IgG, Bradford of unbound IgG; mg IgG bound relative to WQRHGI (the reference itself)
[14] = target: human polyclonal IgG (human); test: ITC at 25 C, peptide titrated into polyclonal IgG in PBS pH 7.4, independent single-site fit
[15] = target: human polyclonal IgG (human); test: batch incubation of peptide-Toyopearl resin with human IgG, Bradford of unbound IgG; mg IgG bound relative to MWRGWQ (the reference itself)

MWRGWQ [MWRGWQ]
% Binding (mg IgG bound by variant/mg IgG bound by original sequence × 100%) [1]: 100.00% | solubility ([2]; highly acidic buffer / lower pH): soluble; also recorded: could be dissolved | solubility ([2]; pH 7.4 buffer / neutral pH): not soluble; also recorded: tended to gel

HWRGWV [reference compound]
% Purity (IgG over total proteins) ([3]; Gel A): 100.00% | % Purity (IgG over total eluted proteins) ([3]; Gel A): 97.81% | % Purity (IgG over total proteins) ([3]; Gel B): 45.40% | % Purity (IgG over total eluted proteins) ([3]; Gel B): 93.79% | binding capacity [4]: up to 91.5 mg of IgG per mL of adsorbent | HCP LRV [5]: 1.6 | DBC at 10% breakthrough ([6]; residence time 2 min): 25 mg IgG/mL resin | DBC at 10% breakthrough ([6]; residence time 5 min): 36 mg IgG/mL resin

Protein A: Protein A adsorbent, industrial standard for mAb capture
HCP LRV [5]: 2.5-3.0 | % Purity (IgG over total protein) ([7]; elution lane (pH 4)): 100.00% | % Purity (IgG over total protein) ([7]; lane FT): 55.74%

GWLHQR
% Purity (IgG over total proteins) ([3]; Gel B): 57.02% | % Purity (IgG over total eluted proteins) ([3]; Gel B): 0.00% | IgG yield ([3]; competitive conditions, CHO cell culture supernatant): lower than expected IgG yields; also recorded: lower IgG yield | % Purity (IgG over total eluted proteins) [8]: 100%

WQRHGIC(iodoacetyl‑activated TREN WorkBeads resin) (not fully specified) [WQRHGIC (SEQ ID NO:30)-WorkBeads]
DBC (dynamic binding capacity at 10% breakthrough) (mg IgG/mL resin) [9]: 33.6 | Kd [10]: 3.2 µM | Qmax (mg IgG/mL resin) [11]: 52.6 | DBC (dynamic binding capacity at 10% breakthrough) (mg IgG/mL resin) [12]: 43.8

WQRHGI [WQRHGI (SEQ ID NO:1)]
% Binding [13]: 100% | Kd [14]: 58.8 µM | stoichiometry (N, interacting peptides per IgG) (peptides per IgG) [14]: 10

MWRGWQC(iodoacetyl‑activated TREN WorkBeads resin) (not fully specified) [MWRGWQC (SEQ ID NO:31)-WorkBeads]
DBC (dynamic binding capacity at 10% breakthrough) (mg IgG/mL resin) [9]: 44 | Kd [10]: 8.1 µM | Qmax (mg IgG/mL resin) [11]: 57.5 | DBC (dynamic binding capacity at 10% breakthrough) (mg IgG/mL resin) [12]: 55.3

MWRGWQ [MWRGWQ (SEQ ID NO:2)]
% Binding [15]: 100%
